This note sets out measurements from patent publication US20210386733A1, “LYSINE-SPECIFIC HISTONE DEMETHYLASE INHIBITORS FOR THE TREATMENT OF MYELOPROLIFERATIVE NEOPLASMS” (Imago Biosciences, Inc., priority 2019, published 2021).

Data set [1] has as its system patients with myelofibrosis. In words: Phase 2B clinical trial of Compound 1 in myelofibrosis (Example 2). Type of data set: in vivo, human. As to the method: A multi-center, open label, dose-range finding study to assess the safety, optimally effective dosing rules, steady-state pharmacokinetics and pharmacodynamics of Compound 1 orally once daily in patients with myelofibrosis was conducted in a Phase 1/2a study. • Primary objectives were to evaluate, in MF patients the effect of Compound 1 on: Safety and tolerability • Pharmacokinetics (Phase 1/2a only) • Reduction in spleen volume
This study initiated as a Phase 1/2a study assessing the safety of the starting dose, an 85 day duration of treatment, and the pharmacokinetic and pharmacodynamic effects of Compound 1, with transition to a Phase 2b study incorporating changes supported by the earlier pharmacokinetic and pharmacodynamic studies and safety assessments. This study consisted of two treatment periods: the Initial Treatment Period (ITP), followed by the Additional Treatment Period (ATP). Patients commenced enrolment in the Phase 2b portion of the study, in which the ITP has been extended such that patients were treated daily for 169 days. The ATP, also extended, offered treatment to qualifying patients for an additional 169 days.
Initial Treatment Period. During the ITP, patients initially returned for study assessments twice weekly for the first week (ITP Days 0, 3 and 7); post-dosing of 3 patients at the new Ds, the DSMC convened to assess the necessity of the Day 3 visit. Patients returned weekly for the next 7 weeks (ITP Days 14, 21, 28, 35, 42, 49 and 56), at least bi-weekly for 8 weeks (ITP Days 70, 84, 98 and 112) and then monthly for 8 weeks (ITP Days 140 and 168). It was anticipated that by Week 8 (Day 56) patients will have achieved a stable dose, with weekly titrations no longer necessary. For the exceptional patient whose dose had not stabilized, weekly visits continued at the PI's discretion (note: bi-weekly visits may also continue post Day 112). On Days 84 and 168, patients underwent abdominal magnetic resonance imaging (MRI), or computerized tomography (CT) if the patient was not a candidate for MRI. On Day 168, bone marrow sampling was also required. Prior to or at the Day 168 visit, but ideally at the Day 140 visit for logistical purposes, a ‘qualification’ assessment was made to determine whether the patient is deriving clinical benefit (defined as not meeting progressive disease criteria and safely tolerating Compound 1; this definition applies throughout document and will not be repeated with each reference to clinical benefit). Such patients qualified for entry into the ATP, a transition which was anticipated to occur without interruption in dosing. Patients not deriving clinical benefit, or who achieve complete response (CR), partial response (PR) or clinical improvement (CI) and subsequently relapse the equivalent of treatment failures, discontinued Compound 1 and undergo End of Treatment (EoT), pre-End of Study (pre-EoS) and End of Study (EoS) visits.
Initial Treatment Period (ITP). Treatment began on Day 0 at the Ds of 0.5 mg/kg QD for all patients entering the Phase 2b portion of the study. Dose-adjustments could be made at each clinic visit (with the exception of Day 3), with dose-titration, either upward or downward, contingent on the comparison of hematology values from the prior visit, as dictated by the rules below. The Dpi was anticipated to be ≤1.2 mg/kg QD; however, this was not the upper limit for titration purposes as the dose needed to achieve a therapeutic effect will vary among patients and may change over time. The platelet titration target expected to be associated with a clinically significant therapeutic effect was a platelet count of ≥50,000 to ≤75,000/μL (50-75×10^9/L). Titration and re-challenge rules based on evaluation of platelet, absolute neutrophil (ANC) and hemoglobin (Hgb) counts are noted below. […]

Data set [2] has as its system somatic mutations in myeloid neoplasm genes (JAK2, CALR, MPL, ASXL1 etc.). The data set is described as follows: Sequencing of somatic mutations, variant allele frequency (VAF) in treated patients (Example 3). The format is in vivo, human. The source says:
The following characterize the sequencing protocol: • Samples: Germline (buccal or hair) and “Tumor” (bone marrow, peripheral blood, granulocytes) • Target enrichment: 11,736 hybridization probes in IDT AML panel targeting 261 genes (˜6300 exons) recurrently mutated in myeloid neoplasms • Illumina sequencing: 2×150 bp paired-end sequencing; ˜10 million pairs sequenced per sample • Aiming for sequencing depth >500; Actual: >1000 for >90% of samples • Analysis: Burrows-Wheeler alignment (BWA)=>VARSCAN2 genotyper=>IGV for CALR, etc. • Cutoffs for somatic calls: Sequencing Depth: >20 Mutant (or Variant) Allele Frequency (VAF): >15% • Annotation: All calls submitted to CADD (Combined Annotation Dependent Depletion) at University of Washington • CADD score cutoff >20 identifies the top 1% of the most deleterious mutations

Data set [3] in a line: Non-clinical studies of acute toxicity. Type of data set: in vivo. Particulars: even at extremely high doses (human equivalent dose (HED) ˜20-40 mg/kg).
Another data set has as its system patients with MF. The data set is described as follows: Safety / adverse events in the clinical studies (31 subjects). Type of data set: in vivo. The source says: Safety. […] Four SAEs attributed to Compound 1 (all Grade 3), including painful splenomegaly, headache, nausea and vomiting, and heart failure. There were 139 AEs of all grades attributed to Compound 1. The most common AEs across the 31 subjects from both of the above studies were thrombocytopenia (11 subjects, 35%), anemia (3 subjects, 10%) and nausea (1, 3%). The most common grade 3/4 AEs attributed to Compound 1 were Anemia (6 subjects, 19%) and neutropenia (3 subjects, 10%).
Management of Study Toxicities. Adverse event intensity will be evaluated using the National Cancer Institute (NCI) Common Terminology Criteria for Adverse Events (CTCAE) version 4.03, published 14 Jun. 2010.

Setting [4] is: Phase 2b patients at Week 12, n=14.

Each structure is given as a SMILES string. Where a name gives a salt, the structure may show the parent alone.

As to `CN1CCN(C(=O)[C@H](CCCN[C@@H]2C[C@H]2c2ccc(F)cc2)NC(=O)c2ccc(-n3ccnn3)cc2)CC1` [Compound 1, N-[(2S)-5-{[(1R, 2S)-2-(4-fluorophenyl)cyclopropyl]amino}-1-(4-methylpiperazin-1-yl)-1-oxopentan-2-yl]-4-(1H-1,2,3-triazol-1-yl)benzamide, bis-tosylate salt], in data set [1] (setting [4]), the “patients with a decrease in spleen volume” value turned out to be 86%, the “patients with a spleen volume reduction of ≥20%” value is reported as 29% and the “patients with a spleen volume reduction of ≥35%” value is 14%. The “median change in spleen volume to Wk 12” value in data set [1] (Phase 2b patients, n=14) is given as −15%. In data set [1] (all patients at Week 12, n=32), the “patients with a decrease in symptom score” value came out at 78% and the “patients with a reduction in symptom score of ≥50%” value came out at 25%. For the same compound, in data set [2] (22 patients), the “patients showing a decrease in some or all somatic mutations” value worked out at 32%, the “patients with increased VAFs” value amounted to 14% and the “patients with stable VAFs” value was 55%. The “progression to AML” value in data set [2] (human, in vivo) is given as “No progression to AML”. In addition, in data set [2] (patients followed up to 550+ days), the new mutations result is reported as “No new mutations identified”. The “acute toxicity in non-clinical studies” value in data set [3] is “no evidence”. In the data set with patients with MF (31 subjects), the “subjects with grade 3/4 Anemia attributed to Compound 1” value is 19% and the “subjects with grade 3/4 neutropenia attributed to Compound 1” value is on record as 10%. Besides, in the data set on patients with MF (31 subjects from both studies), the “subjects with anemia (most common AEs)” value is recorded as 10%, the “subjects with nausea (most common AEs)” value is reported as 3% and the “subjects with thrombocytopenia (most common AEs)” value is 35%. Further, in the data set on patients with MF (MF patients), the tolerability entry is given as “well tolerated”. Also, the “SAEs attributed to Compound 1” value with patients with MF (all Grade 3: painful splenomegaly, headache, nausea and vomiting, heart failure) is recorded as “Four”. Further, the “AEs of all grades attributed to Compound 1” value in the data set with patients with MF (human, in vivo) was 139. For the same compound, the “deaths or dose-limiting toxicities” value with patients with MF (throughout the course of the study) was “no deaths or dose-limiting toxicities”.
